Patent US20260078108A1, “SOLID FORMS OF A ROCK INHIBITOR” (REDX PHARMA PLC, priority 2022, published 2026)
Where a name gives a salt, the structure may show the parent alone.

Experiments:
[1] = 7-day stability testing of solid forms (HPLC purity, XRPD); type: physicochemical; details: for Purity (area %): listed as HCI salt Form I
Description: About 10 mg of freebase Form I, HCl salt Form II, Succinate Form I and received HCl salt Form I were placed at 60° C./capped and 40° C./75% RH (open), respectively. Samples were prepared in duplicate for each condition. At day 0 and day 7, the samples were analyzed by HPLC and XRPD to check the purity and crystal form, respectively.

[2] = Solubility testing in water, SGF, FaSSIF, FeSSIF at 37° C.; type: physicochemical
Description: About 15 mg of sample was weighed into each sample vial and then 3.0 mL of water, simulated gastric fluid (SGF), Fasted State Simulated Intestinal Fluid (FaSSIF) or Fed State Simulated Intestinal Fluid (FeSSIF) media was added. Samples were prepared in triplicate for each media. The suspensions were kept shaking at 37° C. for up to 24 h. At 0.5, 2 and 24 h, suspensions were filtered and the filtrate was analyzed by HPLC.

[3] = system: animal models of inflammatory bowel disease; details: multiple animal models of inflammatory bowel disease; preclinical data, background; cited from earlier work

NCc1ccc(C(=O)Nc2ccncc2F)cc1-c1cccc(C(=O)Nc2ccc(SC[C@H]3CCOC3=O)cc2)c1 [HCl salt Form I]
Purity (area %) ([1]; Day 0, HPLC): 97.62 area % | XRPD (crystal form) ([1]; Day 7, 40° C./75% RH (open)): No change | Purity (area %) ([1]; Day 7, 40° C./75% RH (open), HPLC): 97.62 area % | XRPD (crystal form) ([1]; Day 7, 60° C./capped): No change | Purity (area %) ([1]; Day 7, 60° C./capped, HPLC): 97.61 area %

NCc1ccc(C(=O)Nc2ccncc2F)cc1-c1cccc(C(=O)Nc2ccc(SC[C@H]3CCOC3=O)cc2)c1 (stereo in doubt) [HCl salt Form I]
Solubility ([2]; FaSSIF (pH of media 6.5), 37° C., 0.5 h): 23 µg/mL | Solubility ([2]; FaSSIF (pH of media 6.5), 37° C., 2 h): 5 µg/mL | Solubility (mg/mL) ([2]; FaSSIF (pH of media 6.5), 37° C., 24 h): <LOD | Solubility ([2]; FeSSIF (pH of media 5.0), 37° C., 0.5 h): 83 µg/mL | Solubility ([2]; FeSSIF (pH of media 5.0), 37° C., 2 h): 91 µg/mL | Solubility ([2]; FeSSIF (pH of media 5.0), 37° C., 24 h): 66 µg/mL | Solubility ([2]; SGF (pH of media 1.2), 37° C., 0.5 h): 780 µg/mL | Solubility ([2]; SGF (pH of media 1.2), 37° C., 2 h): 841 µg/mL | Solubility ([2]; SGF (pH of media 1.2), 37° C., 24 h): 1355 µg/mL | Solubility ([2]; Water (pH of media 7.9), 37° C., 0.5 h): 680 µg/mL | Solubility ([2]; Water (pH of media 7.9), 37° C., 2 h): 771 µg/mL | Solubility ([2]; Water (pH of media 7.9), 37° C., 24 h): 1411 µg/mL | pH ([2]; pH of sample in FaSSIF (pH of media 6.5), 0.5 h): 6.4 | pH ([2]; pH of sample in FaSSIF (pH of media 6.5), 2 h): 6.4 | pH ([2]; pH of sample in FaSSIF (pH of media 6.5), 24 h): 6.4 | pH ([2]; pH of sample in FeSSIF (pH of media 5.0), 0.5 h): 4.9 | pH ([2]; pH of sample in FeSSIF (pH of media 5.0), 2 h): 4.9 | pH ([2]; pH of sample in FeSSIF (pH of media 5.0), 24 h): 4.9 | pH ([2]; pH of sample in SGF (pH of media 1.2), 0.5 h): 1.4 | pH ([2]; pH of sample in SGF (pH of media 1.2), 2 h): 1.4 | pH ([2]; pH of sample in SGF (pH of media 1.2), 24 h): 1.4 | pH ([2]; pH of sample in Water (pH of media 7.9), 0.5 h): 5.6 | pH ([2]; pH of sample in Water (pH of media 7.9), 2 h): 5.7 | pH ([2]; pH of sample in Water (pH of media 7.9), 24 h): 5.8

NCc1ccc(C(=O)Nc2ccncc2F)cc1-c1cccc(C(=O)Nc2ccc(SCC3CCOC3=O)cc2)c1 (stereo not shown) [Compound A, 4-(aminomethyl)-N-(3-fluoropyridin-4-yl)-3-{3-[(4-{[(2-oxooxolan-3-yl)methyl]sulfanyl}phenyl)carbamoyl]phenyl}benzamide]
Stability (in words) ([1]; chemical stability of solid forms, comparison): low chemical stability | Anti-fibrotic therapeutic effects [3]: strong anti-fibrotic therapeutic effects
